pIC50: −log10 of the molar value.
Biological target: T1, Met kinase (Homo sapiens, UniProt P08581)
T1 construct: 6His (N); purchased Upstate 14-526; host or cells: Sf21 insect cells (S. frugiperda), baculovirus
Test: Met kinase inhibition (enzyme assay), flashplate method
Assay type: biochemical
Source text: Measurement of Met Kinase Activity
According to the manufacturer's data (Met, active, upstate, catalogue No. 14-526), Met kinase is expressed for the purposes of protein production in insect cells (Sf21; S. frugiperda) and subsequent affinity-chromatographic purification as “N-terminal 6His-tagged” recombinant human protein in a baculovirus expression vector.
The kinase activity can be measured using various available measurement systems. In the scintillation proximity method (Sorg et al., J. of Biomolecular Screening, 2002, 7, 11-19), the flashplate method or the filter binding test, the radioactive phosphorylation of a protein or peptide as substrate is measured using radioactively labelled ATP (^32P-ATP, ^33P-ATP). In the case of the presence of an inhibitory compound, a reduced radioactive signal, or none at all, can be detected. Furthermore, homogeneous time-resolved fluorescence resonance energy transfer (HTR-FRET) and fluoroescence polarisation (FP) technologies can be used as assay methods (Sills et al., J. of Biomolecular Screening, 2002, 191-214).
Flashplate Method (Met Kinase)
The test plates used are 96-well Flashplate® microtitre plates from Perkin Elmer (Cat. No. SMP200). The components of the kinase reaction described below are pipetted into the assay plate. The Met kinase and the substrate poly Ala-Glu-Lys-Tyr, (pAGLT, 6:2:5:1), are incubated for 3 hrs at room temperature with radioactively labelled ^33P-ATP in the presence and absence of test substances in a total volume of 100 μl. The reaction is terminated using 150 μl of a 60 mM EDTA solution. After incubation for a further 30 min at room temperature, the supernatants are filtered off with suction, and the wells are washed three times with 200 μl of 0.9% NaCl solution each time. The measurement of the bound radioactivity is carried out by means of a scintillation measuring instrument (Topcount NXT, Perkin-Elmer).
The full value used is the inhibitor-free kinase reaction. This should be approximately in the range 6000-9000 cpm. The pharmacological zero value used is staurosporin in a final concentration of 0.1 mM. The inhibitory values (IC50) are determined using the RS1_MTS program.
Kinase reaction conditions per well: • 30 μl of assay buffer • 10 μl of substance to be tested in assay buffer with 10% of DMSO • 10 μl of ATP (final concentration 1 μM cold, 0.35 μCi of ^33P-ATP) • 50 μl of Met kinase/substrate mixture in assay buffer; • (10 ng of enzyme/well, 50 ng of pAGLT/well)
50 mM HEPES • 3 mM magnesium chloride • 3 μM sodium orthovanadate • 3 mM manganese(II) chloride • 1 mM dithiothreitol (DTT)
pH=7.5 (to be set using sodium hydroxide)
60 mM Titriplex III (EDTA)
Met kinase: Upstate, Cat. No. 14-526, Stock 1 μg/10 μl; spec. activity 954 U/mg;
Poly-Ala-Glu-Lys-Tyr, 6:2:5:1: Sigma Cat. No. P1152
Pharmacological Data Met Kinase Inhibitions (Enzyme Assay)

T1 sequence (P08581 974-1390 limits assumed): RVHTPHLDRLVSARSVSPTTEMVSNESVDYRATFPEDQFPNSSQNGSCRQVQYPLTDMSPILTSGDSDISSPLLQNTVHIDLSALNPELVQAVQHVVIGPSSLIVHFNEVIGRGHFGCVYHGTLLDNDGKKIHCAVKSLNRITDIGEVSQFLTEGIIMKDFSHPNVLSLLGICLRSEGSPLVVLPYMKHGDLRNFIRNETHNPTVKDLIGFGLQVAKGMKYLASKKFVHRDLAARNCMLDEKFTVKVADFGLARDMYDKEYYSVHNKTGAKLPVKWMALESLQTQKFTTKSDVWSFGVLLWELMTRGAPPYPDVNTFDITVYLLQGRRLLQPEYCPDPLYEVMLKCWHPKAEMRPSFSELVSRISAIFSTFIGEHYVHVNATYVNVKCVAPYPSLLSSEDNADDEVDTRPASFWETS

pIC50 | Compound
6.00 to 8.00 | CCOC(=O)Nc1cccc(Cn2nc(-c3cccc(CO)c3)ccc2=O)c1 [A122, ethyl{3-[3-(3-hydroxymethylphenyl)-6-oxo-6H-pyridazin-1-ylmethyl]phenyl}carbamate]
6.00 to 8.00 | CCOC(=O)Nc1cccc(Cn2nc(-c3cccc(CNC(=O)CN(C)C)c3)ccc2=O)c1 [A102]
6.00 to 8.00 | CCOC(=O)Nc1cccc(Cn2nc(-c3cccc(CC(=O)NCCCN(C)C)c3)ccc2=O)c1 [A64]
6.00 to 8.00 | CCOC(=O)Nc1cccc(Cn2nc(-c3ccc(CN(Cc4ncc[nH]4)Cc4ncc[nH]4)cc3)ccc2=O)c1 [A171, ethyl{3-[3-(4-{[bis(1H-imidazol-2-ylmethyl)amino]methyl}-phenyl)-6-oxo-6H-pyridazin-1-ylmethyl]phenyl}carbamate]
6.00 to 8.00 | CCOC(=O)Nc1cccc(Cn2nc(-c3cccc(CNC(=O)Cn4cnnn4)c3)ccc2=O)c1 [A95]
6.00 to 8.00 | CCOC(=O)Nc1cccc(Cn2nc(-c3ccc(CNC(=O)Cc4nnn[nH]4)cc3)ccc2=O)c1 [A77]
6.00 to 8.00 | CCOC(=O)Nc1cccc(Cn2nc(-c3cccc(CNC(=O)COC)c3)ccc2=O)c1 [A99]
6.00 to 8.00 | CCOC(=O)Nc1cccc(Cn2nc(-c3cccc(CC(=O)NCCCCN)c3)ccc2=O)c1 [A139]
6.00 to 8.00 | CCOC(=O)Nc1cccc(Cn2nc(-c3ccc(C(=O)NCCCN4CCN(C)CC4)cc3)ccc2=O)c1 [A22]
6.00 to 8.00 | CCOC(=O)Nc1cccc(Cn2nc(-c3cccc(CNC(=O)CCN4CCNCC4)c3)ccc2=O)c1 [A145]
6.00 to 8.00 | CCOC(=O)Nc1cccc(Cn2nc(-c3cccc(CNC(=O)CCN4CCCCC4)c3)ccc2=O)c1 [A109]
6.00 to 8.00 | CCOC(=O)Nc1cccc(Cn2nc(-c3cccc(CC(=O)N(C)CCO)c3)ccc2=O)c1 [A67]
6.00 to 8.00 | CCOC(=O)Nc1cccc(Cn2nc(-c3cccc(CC(=O)NCCCN)c3)ccc2=O)c1 [A140]
6.00 to 8.00 | CCOC(=O)Nc1cccc(Cn2nc(-c3cccc(CC(=O)NCCCCO)c3)ccc2=O)c1 [A71]
6.00 to 8.00 | CCOC(=O)Nc1cccc(Cn2nc(-c3ccc(C(=O)NCCN4CCOCC4)cc3)ccc2=O)c1 [A17]
6.00 to 8.00 | CCOC(=O)Nc1cccc(Cn2nc(-c3cccc(CC(=O)NCCCCN(C)C)c3)ccc2=O)c1 [A63]
6.00 to 8.00 | CCOC(=O)Nc1cccc(Cn2nc(-c3ccc(CNC(=O)COC)cc3)ccc2=O)c1 [A81]
6.00 to 8.00 | CCOC(=O)Nc1cccc(Cn2nc(-c3ccc(C(=O)NCCN(CC)CC)cc3)ccc2=O)c1 [A20]
6.00 to 8.00 | CCOC(=O)Nc1cccc(Cn2nc(-c3cccc(C(=O)NCCCOC)c3)ccc2=O)c1 [A51]
6.00 to 8.00 | CCOC(=O)Nc1cccc(Cn2nc(-c3ccc(C(=O)NCC(O)CO)cc3)ccc2=O)c1 (centres unmarked) [A6]

pIC50 | Compound
6.00 to 8.00 | CCOC(=O)Nc1cccc(Cn2nc(-c3ccc(C(=O)NCCCn4ccnc4)cc3)ccc2=O)c1 [A10]
6.00 to 8.00 | CCOC(=O)Nc1cccc(Cn2nc(-c3cccc(CC(=O)NCCN)c3)ccc2=O)c1 [A141]
6.00 to 8.00 | CCOC(=O)Nc1cccc(Cn2nc(-c3ccc(CC(N)=O)cc3)ccc2=O)c1 [A57]
6.00 to 8.00 | CCOC(=O)Nc1cccc(Cn2nc(-c3ccc(C(=O)NCCO)cc3)ccc2=O)c1 [A2, ethyl(3-{3-[4-(2-hydroxyethylcarbamoyl)phenyl]-6-oxo-6H-pyridazin-1-ylmethyl}phenyl)carbamate]
6.00 to 8.00 | CCOC(=O)Nc1cccc(Cn2nc(-c3ccc(CC(=O)NCCNC(=O)OC(C)(C)C)cc3)ccc2=O)c1 [A55]
6.00 to 8.00 | CCOC(=O)Nc1cccc(Cn2nc(-c3cccc(C(=O)NCCNC(=O)OC(C)(C)C)c3)ccc2=O)c1 [A45]
6.00 to 8.00 | CCOC(=O)Nc1cccc(Cn2nc(-c3cccc(CNC(=O)Cc4nnn[nH]4)c3)ccc2=O)c1 [A96]
6.00 to 8.00 | CCOC(=O)Nc1cccc(Cn2nc(-c3cccc(C(=O)NCCCN(C)C)c3)ccc2=O)c1 [A47]
6.00 to 8.00 | CCOC(=O)Nc1cccc(Cn2nc(-c3ccc(-c4noc(C)n4)cc3)ccc2=O)c1 [A163, ethyl(3-{3-[4-(5-methyl-1,2,4-oxadiazol-3-yl)phenyl]-6-oxo-6H-pyridazin-1-ylmethyl}phenyl)carbamate]
6.00 to 8.00 | CCOC(=O)Nc1cccc(Cn2nc(-c3ccc(C(=O)NCCS(C)(=O)=O)cc3)ccc2=O)c1 [A7]
6.00 to 8.00 | CCOC(=O)Nc1cccc(Cn2nc(-c3cccc(CNC(=O)CNC(C)=O)c3)ccc2=O)c1 [A93]
6.00 to 8.00 | CCOC(=O)Nc1cccc(Cn2nc(-c3ccc(CO)cc3)ccc2=O)c1 [A123, ethyl{3-[3-(4-hydroxymethylphenyl)-6-oxo-6H-pyridazin-1-ylmethyl]phenyl}carbamate]
6.00 to 8.00 | CCOC(=O)Nc1cccc(Cn2nc(-c3cccc(C(=O)NCCCNC(=O)OC(C)(C)C)c3)ccc2=O)c1 [A44]
6.00 to 8.00 | CCOC(=O)Nc1cccc(Cn2nc(-c3ccc(CNC(=O)CN(C)C)cc3)ccc2=O)c1 [A80]
6.00 to 8.00 | CCOC(=O)Nc1cccc(Cn2nc(-c3cccc(CNC(=O)CN4CCCCC4)c3)ccc2=O)c1 [A110]
6.00 to 8.00 | CCOC(=O)Nc1cccc(Cn2nc(-c3cccc(C(=O)NCCCCO)c3)ccc2=O)c1 [A53]
6.00 to 8.00 | CCOC(=O)Nc1cccc(Cn2nc(-c3ccc(C(=O)NCCCN(CC)CC)cc3)ccc2=O)c1 [A25]
6.00 to 8.00 | CCOC(=O)Nc1cccc(Cn2nc(-c3cccc(CNC(=O)CN4CCNCC4)c3)ccc2=O)c1 [A144]
6.00 to 8.00 | CCOC(=O)Nc1cccc(Cn2nc(-c3ccc(C(=O)NCCN)cc3)ccc2=O)c1 [A132]
6.00 to 8.00 | CCOC(=O)Nc1cccc(Cn2nc(-c3cccc(C(=O)NCCCCN)c3)ccc2=O)c1 [A136]

pIC50 | Compound
6.00 to 8.00 | CCOC(=O)Nc1cccc(Cn2nc(-c3ccc(C(=O)N(C)CCO)cc3)ccc2=O)c1 [A12]
6.00 to 8.00 | CCOC(=O)Nc1cccc(Cn2nc(-c3cccc(CNC(=O)CNC(=O)OC(C)(C)C)c3)ccc2=O)c1 [A97]
6.00 to 8.00 | CCOC(=O)Nc1cccc(Cn2nc(-c3cccc(CNC(=O)CCN(C)C)c3)ccc2=O)c1 [A103]
6.00 to 8.00 | CCOC(=O)Nc1cccc(Cn2nc(-c3cccc(C(=O)NCCN(C)C)c3)ccc2=O)c1 [A48]
6.00 to 8.00 | CCOC(=O)Nc1cccc(Cn2nc(-c3cccc(CC(N)=O)c3)ccc2=O)c1 [A69]
6.00 to 8.00 | CCOC(=O)Nc1cccc(Cn2nc(-c3ccc(CC(=O)NCCCCN(C)C)cc3)ccc2=O)c1 [A56]
6.00 to 8.00 | CCOC(=O)Nc1cccc(Cn2nc(-c3cccc(C(=O)NCCN)c3)ccc2=O)c1 [A138]
6.00 to 8.00 | CCOC(=O)Nc1cccc(Cn2nc(-c3ccc(C(=O)NCCCN4CCCCC4)cc3)ccc2=O)c1 [A26]
6.00 to 8.00 | CCOC(=O)Nc1cccc(Cn2nc(-c3ccc(C(=O)NCCCCN(C)C)cc3)ccc2=O)c1 [A11]
6.00 to 8.00 | CCOC(=O)Nc1cccc(Cn2nc(-c3cccc(CNC(=O)CN4CCN(C)CC4)c3)ccc2=O)c1 [A106]
6.00 to 8.00 | CCOC(=O)Nc1cccc(Cn2nc(-c3cccc(CNC(=O)CCN(CC)CC)c3)ccc2=O)c1 [A107]
6.00 to 8.00 | CCOC(=O)Nc1cccc(Cn2nc(-c3ccc(C(=O)NCCCCN)cc3)ccc2=O)c1 [A129, ethyl(3-{3-[4-(4-aminobutylcarbamoyl)phenyl]-6-oxo-6H-pyridazin-1-ylmethyl}phenyl)carbamate]
6.00 to 8.00 | CCOC(=O)Nc1cccc(Cn2nc(-c3ccc(CC(=O)NCCCCN)cc3)ccc2=O)c1 [A146]
6.00 to 8.00 | CCOC(=O)Nc1cccc(Cn2nc(-c3ccc(C(=O)NCCNC(C)C)cc3)ccc2=O)c1 [A21]
6.00 to 8.00 | CCOC(=O)Nc1cccc(Cn2nc(-c3cccc(CNC(=O)CN)c3)ccc2=O)c1 [A133]
6.00 to 8.00 | CCOC(=O)Nc1cccc(Cn2nc(-c3ccc(C(=O)NCCCN(C)C)cc3)ccc2=O)c1 [A14]
6.00 to 8.00 | CCOC(=O)Nc1cccc(Cn2nc(-c3cccc(CC(=O)NCCCO)c3)ccc2=O)c1 [A66]
6.00 to 8.00 | CCOC(=O)Nc1cccc(Cn2nc(-c3ccc(C(=O)NCCCO)cc3)ccc2=O)c1 [A5]

Compound | pIC50
CCOC(=O)Nc1cccc(Cn2nc(-c3cccc(C(=O)NCCCCNC(=O)OC(C)(C)C)c3)ccc2=O)c1 [A43, ethyl(3-{3-[3-(4-tert-butoxycarbonylaminobutylcarbamoyl)-phenyl]-6-oxo-6H-pyridazin-1-ylmethyl}phenyl)carbamate] | 6.00 to 8.00

From patent US8367668B2, “Pyridazinone derivatives” (Merck Patent Gesellschaft mit Beschränkter Haftung, priority 2007, dated 2013)
